# Source: ChEMBL document CHEMBL3885881, “DrugMatrix”
# Species: Rattus norvegicus
# Assay: DrugMatrix - Regimen: Daily Repeat
# Type: toxicity, organism-based, Sprague-Dawley
# Set-up: regimen Daily Repeat, gender Male, age 6-8 weeks
# Conditions: in vivo, sc, route subcutaneous, […]; for ABSOLUTE BASOPHIL / ABSOLUTE EOSINOPHIL / ABSOLUTE LYMPHOCYTE / ABSOLUTE MONOCYTE / ABSOLUTE SEGMENTED NEUTROPHIL / BASOPHIL / EOSINOPHIL / ERYTHROCYTE COUNT / HEMATOCRIT / HEMOGLOBIN / LEUKOCYTE COUNT / LYMPHOCYTE / MEAN CORPUSCULAR HEMOGLOBIN / MEAN CORPUSCULAR HEMOGLOBIN CONCENTRATION / MEAN CORPUSCULAR VOLUME / MONOCYTE / NEUTROPHIL / NUCLEATED RED BLOOD CELLS / PLATELET COUNT: tissue Blood; for ALANINE AMINOTRANSFERASE / ALBUMIN / ALKALINE PHOSPHATASE / ASPARTATE AMINOTRANSFERASE / BLOOD UREA NITROGEN / CARBON DIOXIDE / CHLORIDE / CHOLESTEROL / CREATINE PHOSPHOKINASE / CREATININE / GLUCOSE / LACTATE DEHYDROGENASE / LIPASE / PHOSPHORUS / POTASSIUM / SODIUM / TOTAL BILIRUBIN / TOTAL PROTEIN / URIC ACID: tissue Plasma
# [1] = 50 mg/kg, 120 h, dose level Low, time 5 day
# [2] = 150 mg/kg, 72 h, dose level M2, time 3 day
# [3] = 150 mg/kg, 120 h, dose level M2, time 5 day
structure (smiles),measurement,setting,value
CC(C)(c1ccc(O)cc1)c1ccc(O)cc1 [BISPHENOL A],ABSOLUTE BASOPHIL,[1],0 CELLS/uL
same,ABSOLUTE EOSINOPHIL,[1],0 CELLS/uL
same,ABSOLUTE LYMPHOCYTE,[1],15258.67 CELLS/uL
same,ABSOLUTE MONOCYTE,[1],508.33 CELLS/uL
same,ABSOLUTE SEGMENTED NEUTROPHIL,[1],1433 CELLS/uL
same,BASOPHIL,[1],0%
same,EOSINOPHIL,[1],0%
same,ERYTHROCYTE COUNT,[1],5.65 x10E6/uL
same,HEMATOCRIT,[1],35.13%
same,HEMOGLOBIN,[1],13.73 G/DL
same,LEUKOCYTE COUNT,[1],17.2 x10E3/uL
same,LYMPHOCYTE,[1],89%
same,MEAN CORPUSCULAR HEMOGLOBIN,[1],24.33 pg
same,MEAN CORPUSCULAR HEMOGLOBIN CONCENTRATION,[1],39.07 G/DL
same,MEAN CORPUSCULAR VOLUME,[1],62.23 fL
same,MONOCYTE,[1],2.33%
same,NEUTROPHIL,[1],8.67%
same,NUCLEATED RED BLOOD CELLS,[1],0 /100WBC
same,PLATELET COUNT,[1],1289 x10E3/uL
same,ALANINE AMINOTRANSFERASE,[1],62.67 u/L
same,ALBUMIN,[1],3.57 G/DL
same,ALKALINE PHOSPHATASE,[1],300 u/L
same,ASPARTATE AMINOTRANSFERASE,[1],93 u/L
same,BLOOD UREA NITROGEN,[1],14.67 mg/dL
same,CARBON DIOXIDE,[1],24 mmol/L
same,CHLORIDE,[1],103.67 MEQ/L
same,CHOLESTEROL,[1],48.67 mg/dL
same,CREATINE PHOSPHOKINASE,[1],675.67 u/L
same,CREATININE,[1],0.15 mg/dL
same,GLUCOSE,[1],190.67 mg/dL
same,LACTATE DEHYDROGENASE,[1],256.67 u/L
same,LIPASE,[1],11.67 u/L
same,PHOSPHORUS,[1],13.4 mg/dL
same,POTASSIUM,[1],6.14 MEQ/L
same,SODIUM,[1],142.27 MEQ/L
same,TOTAL BILIRUBIN,[1],0.1 mg/dL
same,TOTAL PROTEIN,[1],5.27 G/DL
same,URIC ACID,[1],2.23 mg/dL
same,ABSOLUTE BASOPHIL,[2],0 CELLS/uL
same,ABSOLUTE EOSINOPHIL,[2],21 CELLS/uL
same,ABSOLUTE LYMPHOCYTE,[2],7705 CELLS/uL
same,ABSOLUTE MONOCYTE,[2],0 CELLS/uL
same,ABSOLUTE SEGMENTED NEUTROPHIL,[2],574 CELLS/uL
same,BASOPHIL,[2],0%
same,EOSINOPHIL,[2],0.33%
same,ERYTHROCYTE COUNT,[2],5.46 x10E6/uL
same,HEMATOCRIT,[2],34.77%
same,HEMOGLOBIN,[2],13.53 G/DL
same,LEUKOCYTE COUNT,[2],8.3 x10E3/uL
same,LYMPHOCYTE,[2],92.33%
same,MEAN CORPUSCULAR HEMOGLOBIN,[2],24.8 pg
same,MEAN CORPUSCULAR HEMOGLOBIN CONCENTRATION,[2],38.97 G/DL
same,MEAN CORPUSCULAR VOLUME,[2],63.67 fL
same,MONOCYTE,[2],0%
same,NEUTROPHIL,[2],7.33%
same,NUCLEATED RED BLOOD CELLS,[2],0 /100WBC
same,PLATELET COUNT,[2],1030 x10E3/uL
same,ALANINE AMINOTRANSFERASE,[2],54.67 u/L
same,ALBUMIN,[2],3.73 G/DL
same,ALKALINE PHOSPHATASE,[2],286.67 u/L
same,ASPARTATE AMINOTRANSFERASE,[2],73 u/L
same,BLOOD UREA NITROGEN,[2],9.33 mg/dL
same,CARBON DIOXIDE,[2],21 mmol/L
same,CHLORIDE,[2],96 MEQ/L
same,CHOLESTEROL,[2],72.67 mg/dL
same,CREATINE PHOSPHOKINASE,[2],254.33 u/L
same,CREATININE,[2],0.11 mg/dL
same,GLUCOSE,[2],143 mg/dL
same,LACTATE DEHYDROGENASE,[2],106.33 u/L
same,LIPASE,[2],8 u/L
same,PHOSPHORUS,[2],11.83 mg/dL
same,POTASSIUM,[2],5.68 MEQ/L
same,SODIUM,[2],141.4 MEQ/L
same,TOTAL BILIRUBIN,[2],0.1 mg/dL
same,TOTAL PROTEIN,[2],5.57 G/DL
same,URIC ACID,[2],0.53 mg/dL
same,ABSOLUTE BASOPHIL,[3],0 CELLS/uL
same,ABSOLUTE EOSINOPHIL,[3],91.33 CELLS/uL
same,ABSOLUTE LYMPHOCYTE,[3],12830 CELLS/uL
same,ABSOLUTE MONOCYTE,[3],122 CELLS/uL
same,ABSOLUTE SEGMENTED NEUTROPHIL,[3],2190 CELLS/uL
same,BASOPHIL,[3],0%
same,EOSINOPHIL,[3],0.67%
same,ERYTHROCYTE COUNT,[3],5.93 x10E6/uL
same,HEMATOCRIT,[3],36.47%
same,HEMOGLOBIN,[3],14.23 G/DL
same,LEUKOCYTE COUNT,[3],15.23 x10E3/uL
same,LYMPHOCYTE,[3],85%
same,MEAN CORPUSCULAR HEMOGLOBIN,[3],24.1 pg
same,MEAN CORPUSCULAR HEMOGLOBIN CONCENTRATION,[3],39.03 G/DL
same,MEAN CORPUSCULAR VOLUME,[3],61.63 fL
same,MONOCYTE,[3],0.67%
same,NEUTROPHIL,[3],13.67%
same,NUCLEATED RED BLOOD CELLS,[3],0.33 /100WBC
same,PLATELET COUNT,[3],1323.33 x10E3/uL
same,ALANINE AMINOTRANSFERASE,[3],59 u/L
same,ALBUMIN,[3],3.77 G/DL
same,ALKALINE PHOSPHATASE,[3],246.33 u/L
same,ASPARTATE AMINOTRANSFERASE,[3],81.67 u/L
same,BLOOD UREA NITROGEN,[3],13.33 mg/dL
same,CARBON DIOXIDE,[3],25.67 mmol/L
same,CHLORIDE,[3],102.67 MEQ/L
same,CHOLESTEROL,[3],61.67 mg/dL
same,CREATINE PHOSPHOKINASE,[3],253 u/L
same,CREATININE,[3],0.21 mg/dL
same,GLUCOSE,[3],193 mg/dL
same,LACTATE DEHYDROGENASE,[3],151.67 u/L
same,LIPASE,[3],10 u/L
same,PHOSPHORUS,[3],13.27 mg/dL
same,POTASSIUM,[3],5.91 MEQ/L
same,SODIUM,[3],142.47 MEQ/L
same,TOTAL BILIRUBIN,[3],0.13 mg/dL
same,TOTAL PROTEIN,[3],5.57 G/DL
same,URIC ACID,[3],2.37 mg/dL
